Reference: patent publication US20220307021A1, “A NEUROPILIN ANTAGONIST IN COMBINATION WITH A P38ALPHA-KINASE INHIBITOR FOR THE TREATMENT OF CANCER” (INSERM (Institut National de la santé et de la Recherche …, priority 2019, published 2022)
pIC50: −log10 of the molar value.

Assays:
HIF-1α mRNA = assay: RT-PCR of HIF-1α mRNA in MDA-MB-231; format: cell-based, human; conditions: MDA-MB-231, time dependent, maximum effect at 60 minutes
Procedure: (§1) MDA-MB-231 RNA was extracted with NucleoSpinRNA II kit (Macherey-Nagel, France) and quantified using Nanodrop (ND-1000 spectrophotometer). 1 μg of each RNA sample was reverse-transcripted into cDNA using iScript cDNA Synthesis Kit (Bio-Rad, France) following the manufacturer's instructions. PCR amplification was performed in reaction mixture (25 μL) containing 200 μM of each dNTP, 1 μg of cDNA, 1 μM of primers and 0.625 U of GoTaq DNA Polymerase (Promega, France) with 45 s of denaturation at 95° C., 45 s of annealing at 60° C. and 1 min of extension at 72° C. for 30 cycles. PCR products were separated by 1% agarose gel electrophoresis, stained with ethidium bromide (Sigma, Germany) and analyzed using Gel Doc 2000 System (Bio-Rad, France).

VEGF-A165 mRNA = assay: RT-PCR of VEGF-A165 mRNA in MDA-MB-231; format: cell-based, human; conditions: MDA-MB-231, time dependent, maximum effect at 60 minutes
Procedure: as §1

AKT-1/-2/-3/-pan = assay: Human phosphokinase proteome profiler array, MDA-MB-231; format: cell-based; conditions: MDA-MB-231, compound at IC50, 10 and 60 minutes
Procedure: (§2) MDA-MB-231 cells were incubated in the presence or absence of NRPa-47 or NRPa-48 compounds (IC50) and protein lysates were prepared and quantified as previously described. Biochemical signaling detection was evaluated by using human proteome profiler array (human phosphokinase array and human apoptosis array) according to the manufacturer's instructions (R&D systems, France). Briefly, capture and control antibodies were spotted in duplicate on nitrocellulose membranes. Cellular extracts were incubated overnight on membrane, washed to remove unbound proteins, followed by incubation with a cocktail of biotinylated detection antibodies. Streptavidin-HRP and chemiluminescent detection reagents were applied, and the signal intensity corresponding to the amount of protein bound was measured at each capture spot using ImageJ software.

ERK-1/-2 = assay: as above; format: cell-based; conditions: MDA-MB-231, compound at IC50, 10 and 60 minutes
Procedure: as §2

JNK-1/-2/-3/-pan = assay: as above; format: cell-based; conditions: MDA-MB-231, compound at IC50, 10 and 60 minutes
Procedure: as §2

p38α = assay: as above; format: cell-based; conditions: MDA-MB-231, compound at IC50, 10 and 60 minutes
Procedure: as §2

p38β/p38γ/p38δ = assay: as above; format: cell-based; conditions: MDA-MB-231, compound at IC50, 10 and 60 minutes
Procedure: as §2

[1] = test system: RSK-1/RSK-2, MSK-2, HSP-27, GSK-3, p70S6K; assay: Human phosphokinase proteome profiler array, MDA-MB-231: downstream kinase substrates; format: cell-based; conditions: MDA-MB-231, compound at IC50, 10 and 60 minutes
Procedure: as §2

[2] = molecular target: selected panel of 40 protein kinases; assay: Protein kinase profiling (Eurofins); format: biochemical; conditions: 1 μM of each NRPa, relative to DMSO control
Procedure: NRPa-47 and NRPa-48 specificity profiling assays were carried out at Eurofins Pharma Discovery Services (Dundee, UK) for Protein Kinase Profiling against a selected panel of 40 protein kinases. Results of protein kinases assayed at 1 μM of each NRPa are presented as a percentage of kinase activity in DMSO control reactions.

MDA-MB-231 [3] = assay: Human apoptosis proteome profiler array, MDA-MB-231; format: cell-based; conditions: for HIF-1α expression: MDA-MB-231, compound at IC50
Procedure: as §2

VEGF-A165/NRP-1 = molecular target: T1, VEGF-A165/NRP-1 (Homo sapiens, UniProt O14786); conditions: previously described [15]; cited from earlier work
T1 sequence (O14786 22-856 limits assumed): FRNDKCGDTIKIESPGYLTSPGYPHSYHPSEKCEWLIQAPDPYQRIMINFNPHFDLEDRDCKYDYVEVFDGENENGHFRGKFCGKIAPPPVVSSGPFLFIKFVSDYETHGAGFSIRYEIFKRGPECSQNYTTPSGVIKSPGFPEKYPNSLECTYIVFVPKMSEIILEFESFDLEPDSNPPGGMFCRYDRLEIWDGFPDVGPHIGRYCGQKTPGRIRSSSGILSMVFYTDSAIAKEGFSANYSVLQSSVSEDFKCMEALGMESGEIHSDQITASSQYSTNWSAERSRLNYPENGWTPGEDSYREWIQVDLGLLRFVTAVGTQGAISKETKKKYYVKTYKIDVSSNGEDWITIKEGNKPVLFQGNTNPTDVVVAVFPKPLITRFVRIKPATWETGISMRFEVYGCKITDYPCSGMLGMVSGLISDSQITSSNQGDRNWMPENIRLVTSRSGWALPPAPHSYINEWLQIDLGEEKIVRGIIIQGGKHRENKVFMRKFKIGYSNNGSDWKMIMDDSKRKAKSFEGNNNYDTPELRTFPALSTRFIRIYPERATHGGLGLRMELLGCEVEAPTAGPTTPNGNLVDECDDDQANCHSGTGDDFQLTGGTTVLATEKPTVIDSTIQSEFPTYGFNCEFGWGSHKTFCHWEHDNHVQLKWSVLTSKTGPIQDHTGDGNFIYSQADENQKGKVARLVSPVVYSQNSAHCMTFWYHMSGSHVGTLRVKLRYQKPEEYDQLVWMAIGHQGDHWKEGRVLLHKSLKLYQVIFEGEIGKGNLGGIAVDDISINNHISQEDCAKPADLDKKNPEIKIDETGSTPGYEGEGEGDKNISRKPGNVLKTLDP

MDA-MB-231 [4] = conditions: read-out: half maximal inhibitory anti-proliferative concentration (IC50); MDA-MB-231, previously reported; cited from earlier work
[5] = test system: MDA-MB-231-xenografted NOG mice; assay: In vivo xenografted-tumor mouse model
Procedure: Protocol was approved by the INSERM Institutional Care and Use Committee according to the European Communities Council Directive. NOD/scid/IL-2Rγ−/− (NOG) female mice were bred and housed in pathogen-free conditions in accordance with the Federation of European Animal Associations (FELSA) guidelines. […]. […] Tumor growth and body weight were measured every three days during the treatment. Mice were weighed regularly to assess the toxicity of the treatment and the tumors were measured with calipers (width×width×length×Pi/6) to determine growth.

[6] = MDA-MB-231, compound at IC50, 60 minutes and 48 hours

| Structure (SMILES) | AKT-1/-2/-3/-pan phosphorylation (AKT-1/-2/-3/-pan) | ERK-1/-2 phosphorylation (ERK-1/-2) | JNK-1/-2/-3/-pan phosphorylation (JNK-1/-2/-3/-pan) | p38α phosphorylation (p38α) | p38β/p38γ/p38δ phosphorylation (p38β/p38γ/p38δ) | GSK-3 phosphorylation [1] | HSP27 phosphorylation [1] | MSK2 phosphorylation [1] | RSK-1 phosphorylation [1] | RSK-2 phosphorylation [1] | kinase activity of 40-selected kinases in vitro [2] | HIF-1α expression (MDA-MB-231 [3]) | anti-apoptotic proteins (Bcl-2, Bcl-x, cIAP-1, cIAP-2, XIAP, Survivin, Livin, Clusterin) and heat shock proteins (HSP-27/-60/-70) level (MDA-MB-231 [3]; [6]) | caspase-3 cleavage (MDA-MB-231 [3]; [6]) | catalase (oxidative stress) (MDA-MB-231 [3]; [6]) | cell cycle protein expression (p21, p27) and phosphorylation of Rad-17 (MDA-MB-231 [3]; [6]) | heme oxygenase HO-1/HMOX1/HSP32 and HO-2/HMOX2 expression (MDA-MB-231 [3]; [6]) | p53 phosphorylation sites (MDA-MB-231 [3]; [6]) | pro-apoptotic proteins (Bad, Bax, SMAC/Diablo, HTRA2/Omi, cytochrome c) level (MDA-MB-231 [3]; [6]) | pIC50 (MDA-MB-231 [4]) | other results |
| --- | --- | --- | --- | --- | --- | --- | --- | --- | --- | --- | --- | --- | --- | --- | --- | --- | --- | --- | --- | --- | --- |
| Cc1ccc(-c2nc3ccccc3[nH]2)cc1NC(=S)NC(=O)c1ccc2c(c1)OCCO2 [NRPa-47, N-[5-(1H-benzimidazol-2-yl)-2-methylphenyl]-N′-(2,3-dihydro-1,4-benzodioxin-6-ylcarbonyl)thiourea] | up-regulated | significant hyper-phosphorylations | significant hyper-phosphorylations | significantly decreased | no significant variation | affected | dephosphorylated | dephosphorylated | remained unchanged | increase in phosphorylation | None of these were significantly affected | inhibit HIF-1α expression | significantly reduced | induction | catalase induction | reduction | both reduced | inhibited | rapid decrease | 6.22 | HIF-1α mRNA expression (HIF-1α mRNA): reduced; VEGF-A165 mRNA expression (VEGF-A165 mRNA): reduced; p70S6K phosphorylation [1]: up-regulated; VEGF-A165/NRP-1 binding (VEGF-A165/NRP-1): inhibited VEGF-A165/NRP-1 binding |
| O=C(NC(=S)Nc1cccc(-c2nc3ccccc3[nH]2)c1)c1ccc2c(c1)OCCO2 [NRPa-48, N-[3-(1H-benzimidazol-2-yl)phenyl]-N′-(2,3-dihydro-1,4-benzodioxin-6-ylcarbonyl)thiourea] | inhibited from 10 minutes until 60 minutes | significantly inhibited | significantly inhibited | significantly inhibited | significantly inhibited | inhibited in a time dependent manner | inhibited in a time dependent manner | inhibited in a time dependent manner | inhibited in a time dependent manner | inhibited in a time dependent manner | None of these were significantly affected | inhibit HIF-1α expression | down-modulated | induction | high level of catalase | reduction | both reduced | inhibited | significantly decreased | 6.40 | PON-2 level (MDA-MB-231 [3]; [6]): remained unchanged; body weight of treated animals ([5]; 50 mg/kg by force-feeding, three times a week): did not show any loss of weight; treated mice alive at the end of treatment ([5]; 50 mg/kg force-feeding): 62%; tumor size reduction compared to the reference group ([5]; 50 mg/kg force-feeding, Day-38 (21 days after starting treatment)): approximately 29%; tumor size reduction ([5]; 50 mg/kg force-feeding, Day-45): 34%; median survival ([5]; 50 mg/kg force-feeding, control group 35 days): over 56 days |
